Values of other authors in patent US20020020828A1, “Non-toxic ethylene glycol-based antifreeze/heat transfer fluid concentrate and antifreeze/heat transfer fluid” (priority 2000, published 2002).

Tested on: humans
Conditions: ingestion

SMILES: OCCO [EG, 1,2-ethandiol]
- toxic level in humans (reported as low as): 1,570 mg/kg
